Experimental data reported in paper PMC6021032, “Antimycobacterial activity of nitrogen heterocycles derivatives: 7-(pyridine-4-yl)-indolizine derivatives. Part VII^8–12” (Journal of Enzyme Inhibition and Medicinal Chemistry, 2017).
pIC50: −log10 of the molar value. Where two headings read alike, the source gives them in different places.

Experiments:
[1] = test system: THP-1 cell line infected with Mtb; assay: Intracellular activity assay, luminescence; format: cell-based, Mycobacterium tuberculosis; details: Mycobacterium tuberculosis, Mtb-infected THP-1 cells, 72 h
Procedure: Since the overall efficacy of any anti TB drug will be improved by its ability to traffic into the macrophage phagosome containing replicating bacteria, we evaluated the intracellular activity of compounds[24]. This was measured by using THP-1 cell line infected with Mtb. Infected cells were exposed to compounds for 72 h and viable bacterial counts were measured using luminescence as a measure of intracellular growth.
Assay (Promega) which uses ATP as an indicator of cell viability. Relative luminescent units (RLU) were measured using a Biotek Synergy 4 plate reader. The dose response curve was fitted using the Levenberg–Marquardt algorithm. The IC50 was defined as the compound […]
Intracellular Activity Assay
The activity of compounds against intracellular bacteria was determined by measuring viability in infected THP-1 cell after 3 days in the presence of test compounds. Compounds were prepared as 10-point three-fold serial dilutions in DMSO. The highest concentration of […]
THP-1 cells were cultured in complete RPMI and differentiated into macrophage-like cells using 80 nM PMA overnight at 37°C, 5% CO2. THP-1 cells were infected with a luminescent strain of H37Rv (which constitutively expresses luxABCDE) at a multiplicity of infection of 1 and incubated overnight at 37°C, 5% CO2. Infected cells were recovered using Accutase/EDTA solution, washed twice with PBS to remove extracellular bacteria and seeded into assay pates. Compound dilutions were added to a final DMSO concentration of 0.5%.
Assay plates were incubated for 72 h at 37°C, 5% CO2. Each run included isoniazid as a control. Relative luminescent units (RLU) were measured using a Biotek Synergy 2 plate reader. The dose response curve was fitted using the Levenberg–Marquardt algorithm. The […]
inhibition of growth respectively.
3. Cycle 3 – Absorption, distribution, metabolism, excretion and toxicity (ADMET)
3.1. Plasma Protein Binding Assay
Compounds were added to human plasma at a fixed concentration of 5 µM. The mixture was dialyzed in a RED device (Rapid Equilibrium Dialysis, Pierce) against PBS and incubated on an orbital shaker for 4 h at 37 °C. Aliquots from plasma and PBS sides were collected; an equal volume of PBS was added to the plasma sample, and an equal volume of plasma was added to the PBS sample. Three volumes of methanol (containing the internal binding standard propranolol) was added to precipitate the proteins and release the compound.
Each compound was tested in duplicate. Samples were centrifuged, the supernatant was […]

Mycobacterium abscessus = assay: MIC, IC50, IC90 against nontuberculous mycobacteria (OD590); format: cell-based; details: M. abscessus
[2] = test system: human liver cells (HepG2); assay: HepG2 cytotoxicity (CellTiter-Glo); format: cell-based; details: read-out: IC50 (50% loss of viability), 72 h
CYP2C9 = target: T1, CYP2C9 (Homo sapiens, UniProt P11712); assay: Cytochrome P450 inhibition in human liver microsomes; format: in vitro ADME
T1 construct: Compounds were incubated with human liver; from tissue; host or cells: human liver microsomes
T1 sequence (P11712 whole entry): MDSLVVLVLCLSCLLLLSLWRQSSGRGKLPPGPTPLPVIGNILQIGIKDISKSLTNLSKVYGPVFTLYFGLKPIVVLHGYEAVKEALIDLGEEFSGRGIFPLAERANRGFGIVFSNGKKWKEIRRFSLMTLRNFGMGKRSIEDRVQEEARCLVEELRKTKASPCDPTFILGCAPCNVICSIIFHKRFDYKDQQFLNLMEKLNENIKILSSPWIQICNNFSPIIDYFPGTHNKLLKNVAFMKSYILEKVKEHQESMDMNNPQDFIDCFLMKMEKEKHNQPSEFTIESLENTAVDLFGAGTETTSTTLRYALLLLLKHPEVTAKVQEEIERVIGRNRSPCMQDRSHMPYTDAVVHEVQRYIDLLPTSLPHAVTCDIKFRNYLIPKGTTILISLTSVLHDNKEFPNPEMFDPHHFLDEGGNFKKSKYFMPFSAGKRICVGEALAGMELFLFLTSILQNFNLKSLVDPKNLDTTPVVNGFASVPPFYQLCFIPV

CYP2C8 = target: T2, CYP2C8 (Homo sapiens, UniProt P10632); assay: as above; format: in vitro ADME
T2 construct: Compounds were incubated with human liver; from tissue; host or cells: human liver microsomes
T2 sequence (P10632 1-490): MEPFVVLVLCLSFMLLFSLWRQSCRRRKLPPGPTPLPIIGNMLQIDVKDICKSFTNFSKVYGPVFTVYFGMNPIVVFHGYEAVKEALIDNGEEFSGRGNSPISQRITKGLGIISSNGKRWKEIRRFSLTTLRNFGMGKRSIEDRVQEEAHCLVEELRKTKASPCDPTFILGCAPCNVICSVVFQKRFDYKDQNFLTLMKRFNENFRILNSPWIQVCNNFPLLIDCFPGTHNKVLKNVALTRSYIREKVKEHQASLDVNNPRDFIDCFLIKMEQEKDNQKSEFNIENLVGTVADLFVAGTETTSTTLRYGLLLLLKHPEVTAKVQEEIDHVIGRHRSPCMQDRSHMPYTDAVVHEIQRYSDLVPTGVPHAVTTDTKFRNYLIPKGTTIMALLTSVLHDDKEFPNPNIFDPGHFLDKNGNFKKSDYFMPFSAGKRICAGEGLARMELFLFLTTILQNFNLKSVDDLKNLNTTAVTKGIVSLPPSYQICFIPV

CYP2D6 = target: T3, CYP2D6 (Homo sapiens, UniProt P10635); assay: as above; format: in vitro ADME
T3 construct: Compounds were incubated with human liver; from tissue; host or cells: human liver microsomes
T3 sequence (P10635 whole entry): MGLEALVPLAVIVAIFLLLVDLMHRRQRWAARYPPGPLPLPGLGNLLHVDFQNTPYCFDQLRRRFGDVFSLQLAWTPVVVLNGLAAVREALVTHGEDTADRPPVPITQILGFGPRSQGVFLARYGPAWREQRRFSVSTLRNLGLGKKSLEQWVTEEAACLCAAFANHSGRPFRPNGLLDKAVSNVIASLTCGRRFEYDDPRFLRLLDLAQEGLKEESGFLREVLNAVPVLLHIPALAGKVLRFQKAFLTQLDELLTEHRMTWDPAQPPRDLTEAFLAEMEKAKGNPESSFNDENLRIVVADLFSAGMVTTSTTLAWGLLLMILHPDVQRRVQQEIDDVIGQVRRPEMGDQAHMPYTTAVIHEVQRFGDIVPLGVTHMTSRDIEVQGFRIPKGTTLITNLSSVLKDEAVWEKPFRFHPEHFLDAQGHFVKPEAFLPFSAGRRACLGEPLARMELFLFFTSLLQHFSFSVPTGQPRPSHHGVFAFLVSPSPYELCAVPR

CYP2B6 = target: T4, CYP2B6 (Homo sapiens, UniProt P20813); assay: as above; format: in vitro ADME
T4 construct: Compounds were incubated with human liver; from tissue; host or cells: human liver microsomes
T4 sequence (P20813 1-491): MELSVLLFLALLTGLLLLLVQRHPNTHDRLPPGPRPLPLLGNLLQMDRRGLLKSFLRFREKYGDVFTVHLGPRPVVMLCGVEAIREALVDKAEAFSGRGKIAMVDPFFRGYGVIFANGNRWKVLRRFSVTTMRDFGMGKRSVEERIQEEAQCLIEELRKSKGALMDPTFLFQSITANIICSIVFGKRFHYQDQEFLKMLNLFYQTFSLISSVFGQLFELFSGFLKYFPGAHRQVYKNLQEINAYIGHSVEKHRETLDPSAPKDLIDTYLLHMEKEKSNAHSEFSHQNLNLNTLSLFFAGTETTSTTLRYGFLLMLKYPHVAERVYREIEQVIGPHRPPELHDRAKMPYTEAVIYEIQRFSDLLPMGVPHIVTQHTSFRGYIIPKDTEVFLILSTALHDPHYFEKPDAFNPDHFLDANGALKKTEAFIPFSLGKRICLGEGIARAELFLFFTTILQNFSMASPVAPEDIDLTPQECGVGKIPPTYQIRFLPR

Mycobacterium avium = assay: MIC against nontuberculous mycobacteria (Alamar blue); format: cell-based; details: M. avium
CYP2C19 = target: T5, CYP2C19 (Homo sapiens, UniProt P33261); assay: Cytochrome P450 inhibition in human liver microsomes; format: in vitro ADME
T5 construct: Compounds were incubated with human liver; from tissue; host or cells: human liver microsomes
T5 sequence (P33261 whole entry): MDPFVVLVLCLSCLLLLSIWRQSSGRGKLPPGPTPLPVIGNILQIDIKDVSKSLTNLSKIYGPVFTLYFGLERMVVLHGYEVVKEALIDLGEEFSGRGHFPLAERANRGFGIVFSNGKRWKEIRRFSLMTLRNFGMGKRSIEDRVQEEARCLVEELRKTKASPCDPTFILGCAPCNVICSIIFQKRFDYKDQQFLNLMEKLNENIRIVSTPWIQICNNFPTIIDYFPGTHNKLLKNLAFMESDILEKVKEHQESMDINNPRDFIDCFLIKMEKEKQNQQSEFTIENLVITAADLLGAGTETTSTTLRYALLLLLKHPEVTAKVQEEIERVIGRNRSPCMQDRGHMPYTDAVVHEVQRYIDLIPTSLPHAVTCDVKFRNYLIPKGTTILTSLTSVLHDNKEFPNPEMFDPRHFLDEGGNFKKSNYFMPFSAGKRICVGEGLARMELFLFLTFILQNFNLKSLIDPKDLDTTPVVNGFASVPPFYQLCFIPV

[3] = Plasma protein binding by equilibrium dialysis
M. tuberculosis H37Rv = assay: Cycle 2 repeat of MIC, IC50, IC90 under aerobic conditions (lower starting concentrations); format: cell-based, Mycobacterium tuberculosis; details: Mycobacterium tuberculosis, revaluation
[4] = Cytotoxicity, THP-1 cell viability (CellTiter-Glo); details: human
Mtb H37Rv = assay: LORA parallel plates, oxygen-deprived bacteria incubated under aerobic conditions (normal oxygen); format: cell-based, Mycobacterium tuberculosis; details: Mycobacterium tuberculosis, H37RV

Compound: CCOC(=O)c1cc(C(=O)c2ccc(Cl)cc2)n2ccc(-c3cc[n+](CC(=O)c4ccc(C)cc4)cc3)cc12 [Compound 6i]
- pIC50 ([1]; read-out: IC50 intracell): 5.00
- IC90 ([1]; read-out: IC90 intracell): 48 µM
- MIC (Mycobacterium abscessus): showed activity
- pIC50 (Mycobacterium abscessus; Mycobacteroides abscessus): 4.85
- IC90 (Mycobacterium abscessus; Mycobacteroides abscessus): 23 µM
- MIC (Mycobacterium abscessus; Mycobacteroides abscessus, read-out: MIC): 25 µM
- pIC50 [2]: 5.15
- pIC50 (CYP2C9): < 5.30
- pIC50 (CYP2C8): < 5.30
- pIC50 (CYP2D6): < 5.30
- pIC50 (CYP2B6): < 5.30
- MIC (Mycobacterium avium): 50 µM
- MIC (Mycobacterium avium; Mycobacterium avium): 50 µM
- pIC50 (CYP2C19): < 5.30
- Mean plasma fraction bound ([3]; Human plasma, 5 µM, 4 h at 37 °C): strongly bound
- fraction unbound at 4 h, 5 µM ([3]; human, human plasma, 5 µM, 4 h at 37 °C): 0.003
- fraction unbound at 4 h, 5 µM ([3]; human, human plasma, Mean plasma fraction unbound, 5 µM, 4 h at 37 °C): 0.0035
- recovery at 4 h, 5 µM ([3]; human, human plasma, dialysed against PBS in a RED device): 48.7%
- pIC50 (M. tuberculosis H37Rv; aerobic): 5.01
- IC90 (M. tuberculosis H37Rv; aerobic): 17 µM
- MIC (M. tuberculosis H37Rv; repeated at lower starting concentrations, read-out: MIC aerobic condition): 16 µM
- IC50 at 3 days [4]: 3.8 µM
- pIC50 (Mtb H37Rv): 5.19
- IC90 (Mtb H37Rv): 28 µM
- MIC (Mtb H37Rv; 120 h, oxygen-deprived bacteria, aerobic 5 d): 140 µM
